Reference: patent US20220332764A1, “T CELL EPITOPES OF HCMV AND USES OF THEREOF” (EBERHARD KARLS UNIVERSITÄT TÜBINGEN, priority 2019, published 2022)
Where “and” joins values, the source holds several entries; their conditions need not be identical. Equal values may be shown once. Read-outs that look alike come from different tables or passages of the source.

What was measured:
[1] = tested on: CD8+ / CD4+ T cells of donor PBMCs; test: Intracellular cytokine staining (ICS; IFNγ, TNFα, CD107a); assay type: cell-based, human; settings: for Intracellular staining: responding T-cell subset; for Intracellular cytokine staining: responding T-cell subset after peptide stimulation
Text: PHA was used as positive control. […] (Cytofix/Cytoperm, BD Biosciences).

[2] = tested on: PBMCs of healthy HCMV-seropositive donors; test: ex vivo IFNγ ELISpot without prestimulation; assay type: cell-based, human; settings: for % Positive donors (ex vivo): IFNγ ELISpot ex vivo, donors previously tested positive; for ELISpot response rate (ex vivo): donors positively tested in ELISpots with 12d stimulation
Text: (§1) PHA was used as positive control.

[3] = tested on: PBMCs of healthy HCMV-seropositive donors; test: IFNγ ELISpot after 12 day stimulation (memory T-cell response); assay type: cell-based, human; settings: for % Positive donors (after 12 days of stimulation): IFNγ ELISpot, HLA-matched seropositive donors; for ELISpot response rate (12 d stim.): 12-day amplification with IL-2 in vitro; for Positive donors as tested: positive / tested HLA-matched seropositive donors, positive: >10 spots/well and at least 3-fold negative control; for Binding to more than one HLA-I allotype: stimulated T cells of different donors harboring either of two well predicted alleles
Text: as §1

[4] = tested on: CD8+ T cells of HLA-matched healthy donors; settings: for Tetramer-staining: after 12 day amplification

Sequence: FPVEVRSHV (listed as Human cytomegalovirus) [SEQ ID NO: 88]
- Intracellular staining ([1]; Tested HLA B*51:01): CD8
- Intracellular cytokine staining [1]: CD8
- % Positive donors (ex vivo) [2]: 0.0%
- ELISpot response rate (ex vivo) ([2]; Tested HLA B*51:01): 0.0
- % Positive donors (after 12 days of stimulation) [3]: 65.2%
- ELISpot response rate (12 d stim.) ([3]; Tested HLA B*51:01): 65.2
- Positive donors as tested [3]: 15/23
- Tetramer staining ([4]; Tested HLA B*51:01): positive
- Tetramer-staining [4]: Positive

Sequence: GLYTQPRWK (listed as Human cytomegalovirus) [SEQ ID NO: 67]
- Intracellular staining ([1]; Tested HLA A*03:01): CD8
- Intracellular cytokine staining [1]: CD8
- % Positive donors (ex vivo) [2]: 50.0%
- ELISpot response rate (ex vivo) ([2]; Tested HLA A*03:01): 50.0
- % Positive donors (after 12 days of stimulation) [3]: 76.2%
- ELISpot response rate (12 d stim.) ([3]; Tested HLA A*03:01): 76.2
- Positive donors as tested [3]: 16/21
- Tetramer staining ([4]; Tested HLA A*03:01): positive
- Tetramer-staining [4]: Positive

Sequence: GVLDAVWRV (listed as Human cytomegalovirus) [SEQ ID NO: 1]
- Intracellular staining ([1]; Tested HLA A*02:01): CD8
- Intracellular cytokine staining [1]: CD8
- % Positive donors (ex vivo) [2]: 50.0%
- ELISpot response rate (ex vivo) ([2]; Tested HLA A*02:01): 50.0
- % Positive donors (after 12 days of stimulation) [3]: 72.2%
- ELISpot response rate (12 d stim.) ([3]; Tested HLA A*02:01): 72.2
- Positive donors as tested [3]: 13/18
- Tetramer staining ([4]; Tested HLA A*02:01): positive
- Tetramer-staining [4]: Positive

Sequence: HETGVYQMW (listed as Human cytomegalovirus) [SEQ ID NO: 41]
- Intracellular staining ([1]; Tested HLA B*44:02): CD8
- Intracellular cytokine staining [1]: CD8
- % Positive donors (ex vivo) [2]: 62.5%
- ELISpot response rate (ex vivo) ([2]; Tested HLA B*44:02): 62.5
- % Positive donors (after 12 days of stimulation) [3]: 65.4%
- ELISpot response rate (12 d stim.) ([3]; Tested HLA B*44:02): 65.4
- Positive donors as tested [3]: 17/26
- Tetramer staining ([4]; Tested HLA B*44:02): positive
- Tetramer-staining [4]: Positive

Sequence: ITEIALDRY (listed as Human cytomegalovirus) [SEQ ID NO: 54]
- Intracellular staining ([1]; Tested HLA A*01:01): CD8
- Intracellular cytokine staining [1]: CD8
- % Positive donors (ex vivo) [2]: 14.3%
- ELISpot response rate (ex vivo) ([2]; Tested HLA A*01:01): 14.3
- % Positive donors (after 12 days of stimulation) [3]: 58.3%
- ELISpot response rate (12 d stim.) ([3]; Tested HLA A*01:01): 58.3
- Positive donors as tested [3]: 14/24
- Tetramer staining ([4]; Tested HLA A*01:01): positive
- Tetramer-staining [4]: Positive

Sequence: LPHERHREL (listed as Human cytomegalovirus) [SEQ ID NO: 100]
- Intracellular staining ([1]; Tested HLA B*08:01): CD8
- Intracellular cytokine staining [1]: CD8
- % Positive donors (ex vivo) [2]: 85.7%
- ELISpot response rate (ex vivo) ([2]; Tested HLA B*08:01): 85.7
- ELISpot response rate (12 d stim.) ([3]; Tested HLA B*08:01): 90.9
- Positive donors as tested [3]: 20/22 and 3/12
- Binding to more than one HLA-I allotype [3]: potentially able to bind to more than one HLA-I allotype
- Tetramer staining ([4]; Tested HLA B*08:01): positive
- Tetramer-staining [4]: positive

Sequence: LPLKMLNI (listed as Human cytomegalovirus) [SEQ ID NO: 87]
- Intracellular staining ([1]; Tested HLA B*51:01): CD8
- Intracellular cytokine staining [1]: CD8
- % Positive donors (ex vivo) [2]: 87.5%
- ELISpot response rate (ex vivo) ([2]; Tested HLA B*51:01): 87.5
- % Positive donors (after 12 days of stimulation) [3]: 80.0%
- ELISpot response rate (12 d stim.) ([3]; Tested HLA B*51:01): 80.0
- Positive donors as tested [3]: 12/15
- Tetramer staining ([4]; Tested HLA B*51:01): positive
- Tetramer-staining [4]: Positive

Sequence: LPYPRGYTL (listed as Human cytomegalovirus) [SEQ ID NO: 99]
- Intracellular staining ([1]; Tested HLA B*08:01): CD8
- Intracellular staining ([1]; Tested HLA B*51:01): CD8
- Intracellular cytokine staining [1]: CD8
- % Positive donors (ex vivo) [2]: 16.7% and 33.3%
- ELISpot response rate (ex vivo) ([2]; Tested HLA B*08:01): 16.7
- ELISpot response rate (ex vivo) ([2]; Tested HLA B*51:01): 33.3
- Response in mismatch ELISpots ([3]; B*08-/B*51− PBMC samples): showed responses
- % Positive donors (after 12 days of stimulation) [3]: 68.8% and 62.5%
- ELISpot response rate (12 d stim.) ([3]; Tested HLA B*08:01): 68.8
- ELISpot response rate (12 d stim.) ([3]; Tested HLA B*51:01): 62.5
- Positive donors as tested [3]: 11/16 and 10/16
- Binding to more than one HLA-I allotype [3]: potentially able to bind to more than one HLA-I allotype
- HLA restriction demonstrated by tetramer stainings [4]: B*08 and B*51 restriction
- Tetramer staining ([4]; Tested HLA B*08:01): positive
- Tetramer staining ([4]; Tested HLA B*51:01): positive
- Tetramer-staining [4]: positive

Sequence: NLVPMVATV (listed as Human cytomegalovirus) [SEQ ID NO: 101]
- Intracellular staining ([1]; Tested HLA A*02:01): CD8
- ELISpot response rate (ex vivo) ([2]; Tested HLA A*02:01): 100.0
- ELISpot response rate (12 d stim.) ([3]; Tested HLA A*02:01): 75.0
- Tetramer staining ([4]; Tested HLA A*02:01): positive

Sequence: NTDFRVLELY (listed as Human cytomegalovirus) [SEQ ID NO: 55]
- Intracellular staining ([1]; Tested HLA A*01:01): CD8
- Intracellular cytokine staining [1]: CD8
- % Positive donors (ex vivo) [2]: 0.0%
- ELISpot response rate (ex vivo) ([2]; Tested HLA A*01:01): 0.0
- % Positive donors (after 12 days of stimulation) [3]: 56.3%
- ELISpot response rate (12 d stim.) ([3]; Tested HLA A*01:01): 56.3
- Positive donors as tested [3]: 9/16
- Tetramer staining ([4]; Tested HLA A*01:01): positive
- Tetramer-staining [4]: Positive

Sequence: RTDPATLTAY (listed as Human cytomegalovirus) [SEQ ID NO: 53]
- Intracellular staining ([1]; Tested HLA A*01:01): CD8
- Intracellular cytokine staining [1]: CD8
- % Positive donors (ex vivo) [2]: 66.7%
- ELISpot response rate (ex vivo) ([2]; Tested HLA A*01:01): 66.7
- % Positive donors (after 12 days of stimulation) [3]: 82.6%
- ELISpot response rate (12 d stim.) ([3]; Tested HLA A*01:01): 82.6
- Positive donors as tested [3]: 19/23
- Tetramer staining ([4]; Tested HLA A*01:01): positive
- Tetramer-staining [4]: Positive

Sequence: RVKNRPIYR (listed as Human cytomegalovirus) [SEQ ID NO: 68]
- Intracellular staining ([1]; Tested HLA A*03:01): CD8
- Intracellular cytokine staining [1]: CD8
- % Positive donors (ex vivo) [2]: 33.3%
- ELISpot response rate (ex vivo) ([2]; Tested HLA A*03:01): 33.3
- % Positive donors (after 12 days of stimulation) [3]: 60.9%
- ELISpot response rate (12 d stim.) ([3]; Tested HLA A*03:01): 60.9
- Positive donors as tested [3]: 14/23
- Tetramer staining ([4]; Tested HLA A*03:01): positive
- Tetramer-staining [4]: Positive

Sequence: SENGNLQVTY (listed as Human cytomegalovirus) [SEQ ID NO: 40]
- Intracellular staining ([1]; Tested HLA B*44:02): CD8
- Intracellular cytokine staining [1]: CD8
- % Positive donors (ex vivo) [2]: 62.5%
- ELISpot response rate (ex vivo) ([2]; Tested HLA B*44:02): 62.5
- % Positive donors (after 12 days of stimulation) [3]: 83.9%
- ELISpot response rate (12 d stim.) ([3]; Tested HLA B*44:02): 83.9
- Positive donors as tested [3]: 26/31
- Tetramer staining ([4]; Tested HLA B*44:02): positive
- Tetramer-staining [4]: Positive

Sequence: SESEFIVRY (listed as Human cytomegalovirus) [SEQ ID NO: 43]
- Intracellular cytokine staining [1]: CD8
- % Positive donors (ex vivo) [2]: 37.5%
- % Positive donors (after 12 days of stimulation) [3]: 40.0%
- Positive donors as tested [3]: 8/20
- Tetramer-staining [4]: Positive

Sequence: SPRDAWIVL (listed as Human cytomegalovirus) [SEQ ID NO: 26]
- Intracellular staining ([1]; Tested HLA B*07:02): CD8
- Intracellular cytokine staining [1]: CD8
- % Positive donors (ex vivo) [2]: 20.0%
- ELISpot response rate (ex vivo) ([2]; Tested HLA B*07:02): 20.0
- % Positive donors (after 12 days of stimulation) [3]: 68.2%
- ELISpot response rate (12 d stim.) ([3]; Tested HLA B*07:02): 68.2
- Positive donors as tested [3]: 15/22
- Tetramer staining ([4]; Tested HLA B*07:02): positive
- Tetramer-staining [4]: Positive
